Experimental data: patent US6380262B1, “5-membered ring compounds” (Takara Shuzo Co., Ltd., priority 1998, dated 2002)
Where two headings read alike, the source gives them in different places. Numbered stars: 1 amine (or outer) side, 2 acyl side, 3 side chain; on linkers, the order of the positions; unused ones are H or OH. Bridge positions count the residues as written; N and C are the ends. Square brackets hold non-standard residues; d marks the D form. Peptide text beside a SMILES is read from it. I, II: the chains in the order shown. Actinocin(9to1) = Cc1c2oc3c(C)ccc(C(=O)[*:1])c3nc-2c(C(=O)[*:2])c(N)c1=O; NMeV = CN[C@H](C(=O)O)C(C)C; Sar = CNCC(=O)O

Key:
[1] = single oral administration to a rat (death); format: in vivo; settings: single dosage of 1000 mg/kg
Protocol: No toxicity is observed when a physiologically effective amount of the compound of the present invention or an optical isomer thereof, or a salt thereof is administered.

[2] = test system: human influenza virus A1/FM/1/47 (ATCC VR-97); assay: therapeutic effect in mice infected with influenza virus; format: in vivo, BALB/c mice; settings: control 4 out of 11 died
Protocol: (24) Therapeutic effects of cyclopentenone and 2-hydroxy-4-glutathion-S-yl-2-cyclopenten-1-one were examined by conducting experiments in which mice were infected with influenza virus.
Each of 4 weeks old female BALB/c mice was intranasally infected with 1×10^4 FFU of human influenza virus A1/FM/1/47 (ATCC VR-97) which had been propagated in a hen's egg.
Immediately after the infection with virus, single dose of 1 mg/kg of cyclopentenone, or 3 mg/kg or 30 mg/kg of 2-hydroxy-4-glutathion-S-yl-2-cyclopenten-1-one was intraperitoneally administered to the mouse infected with influenza virus.
Phosphate buffered saline was administered to control mice.
As a result, 4 out of 11 mice in the control group died by day 16. On the other hand, the numbers of dead mice were only 1 out of 11, 1 out of 11 and 1 out of 10 for the groups administered with 1 mg/kg of cyclopentenone, 3 mg/kg of 2-hydroxy-4-glutathion-S-yl-2-cyclopenten-1-one and 30 mg/kg of 2-hydroxy-4-glutathion-S-yl-2-cyclopenten-1-one, respectively.

HL-60 cells [3] = assay: measurement of apoptotic cells using FACScan; format: cell-based, human; settings: HL-60, 24 hours; actinomycin D 10 μl of 0.5 mg/ml in 5 ml
Protocol: (§1) (3) HL-60 cells were cultured at 37° C. in RPMI 1640 medium (Bio Whittaker) containing 10% fetal calf serum (JRH) which had been treated at 56° C. for 30 minutes and suspended in RPMI 1640 medium at a concentration of 2.5×10^5 cells/5 ml.
(§2) 10 μl of one of appropriate dilutions of the hexanoyl GM solutions in 20 mM Tris-HCl buffer or the di-t-butyl GD solution in 70% aqueous ethanol solution was added to 5 ml of the suspension. The mixtures were incubated at 37° C. for 24 hours in the presence of 5% CO2. 10 μl of aqueous actinomycin D (Sigma) solution (0.5 mg/ml), which is known as a reagent that induces apoptosis, was used in place of the sample and the mixture was incubated under the same conditions for confirmation.
(§3) Measurement of apoptotic cells using FACScan as described in Saibo Kogaku, Bessatsu (Cell Technology, Suppl.) Jikken Protocol Series: Apoptosis Jikken Protocol (Experimental Protocol Series: Experimental Protocols for Apoptosis) (Shujun-sha) pp. 129-130 and analysis of DNA fragmentation as described in Bio Manual UP Series: Saishin Apoptosis Jikken-ho (Bio Manual UP Series: Current Experimental Methods for Apoptosis) (Yodo-sha) pp. 61-63 were carried out using cells cultured in the same manner as that described above.

HL-60 cells [4] = assay: analysis of DNA fragmentation; format: cell-based, human; settings: HL-60, 24 hours; actinomycin D 10 μl of 0.5 mg/ml in 5 ml
Protocol: as §1, §2, §3

[5] = single oral administration to a mouse (death); format: in vivo; settings: single dosage of 100 mg/kg
[6] = test system: HL-60 (ATCC CCL-240) cells; assay: antiproliferation activity against tumor cells and apoptosis induction, MTT measurement system and optical microscope; format: cell-based, human; settings: for induction of apoptosis (apoptosis corpuscles under an optical microscope): HL-60, 96-well plate culture
Protocol: (1) 100 μl of a suspension containing HL-60 (ATCC CCL-240) cells in RPMI-1640 medium (Nippon Suisan Kaisha) containing 10% fetal calf serum (Gibco) which had been treated at 56° C. for 30 minutes at a concentration of 5×10^4 cells/ml was dispensed into each well of a 96-well microtiter plate. 10 μl of one of 2-fold serial dilutions with water of 8.3 mM hexanoyl GM solution in 25 mM Tris-HCl buffer was added to the well of the plate. The plate was incubated at 37° C. for 48 hours in the presence of 5% CO2. After the cells were examined under an optical microscope, 10 μl of 5 mg/ml 3-(4,5-dimethylthiazol-2-yl)-2,5-diphenyltetrazolium bromide (MTT; Sigma) solution in phosphate buffered saline was added to the well. The plate was incubated for additional 4 hours. 100 μl of 2-propanol containing 0.04 N HCl was added to the well, the mixture was stirred, and the absorbance at 590 nm was measured.
(2) 10 μl of one of 2-fold serial dilutions with 70% aqueous ethanol solution of 19 mM di-t-butyl GD solution in 70% aqueous ethanol solution was added to each well of a 96-well microtiter plate and air-dried. 100 μl of HL-60 suspension was then dispensed as described above. An apoptosis-inducing activity and an antiproliferation activity against tumor cells were examined using a measurement system using MTT.

HL-60 cells [7] = assay: viability by Trypan Blue staining (Viability50); format: cell-based; settings: Homo sapiens, read-out: Viability50 (concentration that results in a viability of 50%)
Protocol: as §1, §2
Furthermore, a portion of the cells cultured for 24 hours as described above was stained with 0.4% Trypan Blue and examined under an optical microscope. The number of viable cells which were not stained and the number of dead cells which were stained blue were counted. The concentration of each of the samples that results in a viability of 50% (Viability50 μM) was determined. As a result, Viability50 for hexanoyl GM was 9.22 μM and that for di-t-butyl GD was 46.3 μM.

topoisomerase I = target: T1, topoisomerase I (Homo sapiens, UniProt P11387); assay: topoisomerase I inhibition, pBR322 DNA relaxation on agarose gel; format: biochemical; settings: topoisomerase I (TopoGEN), 37° C., 30 minutes
T1 construct: purchased TopoGEN
T1 sequence (P11387 1-765): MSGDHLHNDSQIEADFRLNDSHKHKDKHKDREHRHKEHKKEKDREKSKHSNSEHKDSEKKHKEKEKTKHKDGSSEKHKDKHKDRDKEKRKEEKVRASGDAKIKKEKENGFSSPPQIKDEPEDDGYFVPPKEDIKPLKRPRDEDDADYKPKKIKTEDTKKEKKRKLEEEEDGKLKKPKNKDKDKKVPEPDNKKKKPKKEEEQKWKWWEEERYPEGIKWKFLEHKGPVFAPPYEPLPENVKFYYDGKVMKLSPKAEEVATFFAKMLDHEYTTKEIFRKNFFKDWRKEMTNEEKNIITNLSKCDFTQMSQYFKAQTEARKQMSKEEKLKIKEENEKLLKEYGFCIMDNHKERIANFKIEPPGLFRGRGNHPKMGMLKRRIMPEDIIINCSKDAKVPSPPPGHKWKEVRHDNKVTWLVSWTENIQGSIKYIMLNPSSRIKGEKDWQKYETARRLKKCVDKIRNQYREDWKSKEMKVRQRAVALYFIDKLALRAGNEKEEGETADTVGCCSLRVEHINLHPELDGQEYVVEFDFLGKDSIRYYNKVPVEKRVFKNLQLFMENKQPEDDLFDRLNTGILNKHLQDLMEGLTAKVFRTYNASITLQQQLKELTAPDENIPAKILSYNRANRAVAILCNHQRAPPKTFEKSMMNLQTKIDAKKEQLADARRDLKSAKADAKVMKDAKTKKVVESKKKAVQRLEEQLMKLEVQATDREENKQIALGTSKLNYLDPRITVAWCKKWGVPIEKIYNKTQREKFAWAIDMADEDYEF
Protocol: (§4) (1) 2 μl of topoisomerase II (TopoGEN; 2 units/μl), 2 μl of 10-fold concentrated buffer [0.5 M Tris-HCl (pH 8.0), 1.2 M KCl, 0.1 M MgCl2, 5 mM adenosine triphosphate, 5 mM dithiothreitol], 2 μl of 0.1% bovine serum albumin (Takara Shuzo), 11 μl of distilled water and 2 μl of distilled water (control) or 2 μl of one solutions of hexanoyl GM adjusted to varying concentrations with water were mixed together. 1 μl of 0.25 μg/μl pBR322 DNA (Takara Shuzo) was added thereto. The resulting mixture was reacted at 37° C. After reacting for 30 minutes, 2 μl of an aqueous solution containing 1% sodium dodecyl sulfate, 50% glycerol and 0.02% Bromophenol Blue was added thereto to stop the reaction.
20 μl of the reaction mixture was applied to 1% agarose gel prepared using agarose L03 (Takara Shuzo) and TAE buffer [40 mM Tris, 5 mM sodium acetate, 1 mM ethylenediaminetetraacetic acid disodium salt; adjusted to pH 7.8 using acetic acid] and electrophoresed in TAE buffer. After electrophoresis, the gel was soaked in a 1 μg/ml aqueous ethidium bromide solution. […]
(2) The activity of inhibiting topoisomerase I of hexanoyl GM was determined as described in Example 3-(1) except that topoisomerase I (TopoGEN; 0.01 unit/μl) was used in place of topoisomerase II and a solution containing 100 mM Tris-HCl (pH 7.9), 10 mM EDTA, 1 mM spermidine and 50% glycerol was used as 10-fold concentrated buffer.

topoisomerase II = target: T2, topoisomerase II (Homo sapiens, UniProt P11388); assay: topoisomerase II inhibition, pBR322 DNA relaxation on agarose gel; format: biochemical
T2 construct: purchased TopoGEN
Protocol: as §4
20 μl of the reaction mixture was applied to 1% agarose gel prepared using agarose L03 (Takara Shuzo) and TAE buffer [40 mM Tris, 5 mM sodium acetate, 1 mM ethylenediaminetetraacetic acid disodium salt; adjusted to pH 7.8 using acetic acid] and electrophoresed in TAE buffer. After electrophoresis, the gel was soaked in a 1 μg/ml aqueous ethidium bromide solution. The gel was exposed to ultraviolet rays to visualize the electophoretic pattern of DNA.

T2 sequence (P11388 whole entry): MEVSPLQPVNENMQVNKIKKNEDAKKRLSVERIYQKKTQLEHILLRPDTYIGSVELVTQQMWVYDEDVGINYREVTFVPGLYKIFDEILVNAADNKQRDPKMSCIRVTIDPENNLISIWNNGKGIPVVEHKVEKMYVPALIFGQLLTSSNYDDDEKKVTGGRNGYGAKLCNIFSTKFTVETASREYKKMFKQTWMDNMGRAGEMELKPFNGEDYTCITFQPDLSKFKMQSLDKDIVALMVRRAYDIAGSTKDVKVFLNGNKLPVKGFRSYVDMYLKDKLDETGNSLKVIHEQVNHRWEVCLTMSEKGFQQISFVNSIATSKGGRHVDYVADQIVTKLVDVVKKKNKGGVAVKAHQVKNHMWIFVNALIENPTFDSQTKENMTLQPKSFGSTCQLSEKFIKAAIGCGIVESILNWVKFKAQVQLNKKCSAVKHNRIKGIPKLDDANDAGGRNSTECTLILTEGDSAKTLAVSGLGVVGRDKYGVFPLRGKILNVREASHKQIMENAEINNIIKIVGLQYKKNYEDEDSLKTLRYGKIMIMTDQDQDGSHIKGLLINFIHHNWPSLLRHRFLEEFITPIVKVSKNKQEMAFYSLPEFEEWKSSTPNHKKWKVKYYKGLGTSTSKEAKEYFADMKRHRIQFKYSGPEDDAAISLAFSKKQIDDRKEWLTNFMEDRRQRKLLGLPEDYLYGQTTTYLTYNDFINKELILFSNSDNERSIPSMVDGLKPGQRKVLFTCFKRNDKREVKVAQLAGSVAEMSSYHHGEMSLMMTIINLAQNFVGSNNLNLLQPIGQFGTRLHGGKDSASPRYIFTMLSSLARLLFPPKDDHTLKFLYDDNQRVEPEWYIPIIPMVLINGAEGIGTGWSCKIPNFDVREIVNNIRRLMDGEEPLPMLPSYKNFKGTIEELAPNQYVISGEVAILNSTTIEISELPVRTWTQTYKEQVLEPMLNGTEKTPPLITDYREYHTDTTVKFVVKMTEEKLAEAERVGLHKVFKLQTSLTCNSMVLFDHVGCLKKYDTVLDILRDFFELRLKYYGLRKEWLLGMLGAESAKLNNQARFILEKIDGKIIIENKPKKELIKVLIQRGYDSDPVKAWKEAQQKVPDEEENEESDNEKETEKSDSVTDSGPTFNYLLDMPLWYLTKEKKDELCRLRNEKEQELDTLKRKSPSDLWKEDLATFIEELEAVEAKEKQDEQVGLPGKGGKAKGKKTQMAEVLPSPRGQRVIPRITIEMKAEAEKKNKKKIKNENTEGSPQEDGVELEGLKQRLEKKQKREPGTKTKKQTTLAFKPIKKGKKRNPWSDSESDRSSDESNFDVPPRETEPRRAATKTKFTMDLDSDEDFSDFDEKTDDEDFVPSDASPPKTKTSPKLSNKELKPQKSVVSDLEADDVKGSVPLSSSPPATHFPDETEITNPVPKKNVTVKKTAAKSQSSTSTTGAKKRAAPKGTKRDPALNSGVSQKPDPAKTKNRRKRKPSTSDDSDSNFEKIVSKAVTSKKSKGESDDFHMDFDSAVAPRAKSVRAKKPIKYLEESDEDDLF

Compound: N[C@@H](CCC(=O)N[C@@H](CSC1C=C(O)C(=O)C1)C(=O)NCC(=O)O)C(=O)O (stereo partly drawn) [2-hydroxy-4-glutathion-S-yl-2-cyclopenten-1-one]
- death after single oral administration [1]: no death was observed
- number of dead mice by day 16 ([2]; 3 mg/kg single intraperitoneal dose immediately after infection): 1 out of 11
- number of dead mice by day 16 ([2]; 30 mg/kg single intraperitoneal dose immediately after infection): 1 out of 10

Compound: Cc1c2oc3c(C)ccc(C(=O)N[C@@H]4C(=O)N[C@H](C(C)C)C(=O)N5CCC[C@H]5C(=O)N(C)CC(=O)N(C)[C@@H](C(C)C)C(=O)O[C@@H]4C)c3nc-2c(C(=O)N[C@@H]2C(=O)N[C@H](C(C)C)C(=O)N3CCC[C@H]3C(=O)N(C)CC(=O)N(C)[C@@H](C(C)C)C(=O)O[C@@H]2C)c(N)c1=O [actinomycin D] (I: T[dV]P[Sar][NMeV] / II: T[dV]P[Sar][NMeV]; ester I:1-I:C, II:1-II:C; linker I:N-II:N via Actinocin(9to1))
- apoptotic cells (FACScan) (HL-60 cells [3]): observed
- DNA fragmentation (HL-60 cells [4]): observed

Compound: O=C1C=CC(O)C1O (stereo not drawn) [cyclopentenone, 4,5-dihydroxy-2-cyclopenten-1-one]
- death after single oral administration [5]: No death was observed
- number of dead mice by day 16 ([2]; 1 mg/kg single intraperitoneal dose immediately after infection): 1 out of 11

Compound: CC(C)(C)OC1C(=O)CC(SC[C@H](NC(=O)CC[C@H](N)C(=O)O)C(=O)NCC(=O)O)C1OC(C)(C)C (stereo partly drawn) [di-t-butyl GD, 2,3-di-t-butoxy-4-glutathion-S-yl-1-cyclopentanone]
- death after single oral administration [1]: no death was observed
- induction of apoptosis (apoptosis corpuscles under an optical microscope) [6]: apoptosis corpuscles were observed
- final concentration down to which an antiproliferation activity against tumor cells was clearly exhibited ([6]; HL-60, MTT, 2-fold serial dilutions of 19 mM solution, air-dried in well): ≥ 34 µM
- IC50 (HL-60 cells [7]; HL-60, 24 h): 46.3 µM

Compound: CCCCCC(=O)OC1=CC(SC[C@H](NC(=O)CC[C@H](N)C(=O)O)C(=O)NCC(=O)O)CC1=O (stereo partly drawn) [hexanoyl GM, 2-hexanoyloxy-4-glutathion-S-yl-2-cyclopenten-1-one]
- death after single oral administration [1]: no death was observed
- induction of apoptosis (apoptosis corpuscles under an optical microscope) [6]: apoptosis corpuscles were observed
- final concentration down to which an antiproliferation activity against tumor cells was clearly exhibited ([6]; HL-60, 48 hours, MTT, 2-fold serial dilutions of 8.3 mM solution): ≥ 6.25 pm
- concentration at which change of DNA from superhelical type to relaxed type was partially inhibited (topoisomerase I): ≥ 1000 µM
- IC50 (HL-60 cells [7]; HL-60, 24 hours, 0.4% Trypan Blue): 9.22 µM
- selectivity of inhibition, topoisomerase II as compared with topoisomerase I (topoisomerase II): selective inhibitory activity on topoisomerase II
- concentration at which change of DNA from superhelical type to relaxed type was partially or completely inhibited (topoisomerase II; topoisomerase II (TopoGEN), pBR322 DNA, 37° C., 30 minutes): ≥ 100 µM
